Legend:
5-HT2B receptor = target: T1, 5-HT2B receptor (Homo sapiens, UniProt P41595); experiment: Radioligand binding assay
T1 construct: Eurofins
Protocol: (§1) Secondary pharmacology assays were performed at Eurofins using standard experimental techniques against a total of 86 targets across a broad pharmacological space. Assay details along with experimental protocols are described at https://www.eurofinsdiscoveryservices.com. […] Assays measuring substrate turnover or phosphorylation by isolated proteins were used for kinase and enzyme targets, allowing direct determination of the mode of action of the compounds. […] Assays were run in eight points concentration response mode with half log dilutions and IC50, EC50 or Ki (Cheng and Prusoff [1973]) values determined.

5-HT4 receptor = target: T2, 5-HT4 receptor (Homo sapiens, UniProt Q13639); experiment: Radioligand binding assay
T2 construct: Eurofins
T2 sequence (Q13639 whole entry): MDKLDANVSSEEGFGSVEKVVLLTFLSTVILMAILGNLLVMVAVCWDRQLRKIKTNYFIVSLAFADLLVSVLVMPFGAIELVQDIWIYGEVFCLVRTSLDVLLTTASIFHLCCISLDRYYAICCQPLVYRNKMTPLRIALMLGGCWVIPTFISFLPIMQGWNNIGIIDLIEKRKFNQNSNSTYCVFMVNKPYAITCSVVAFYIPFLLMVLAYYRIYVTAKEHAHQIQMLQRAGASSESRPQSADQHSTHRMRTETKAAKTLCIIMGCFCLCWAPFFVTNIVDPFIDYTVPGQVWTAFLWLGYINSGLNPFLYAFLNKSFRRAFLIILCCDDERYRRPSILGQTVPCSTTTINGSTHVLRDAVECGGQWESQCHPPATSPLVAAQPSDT
Protocol: as §1

5-HT7 receptor [1] = target: T3, 5-HT7 receptor (Homo sapiens, UniProt P34969); experiment: Radioligand binding assay
T3 construct: Eurofins
T3 sequence (P34969 whole entry): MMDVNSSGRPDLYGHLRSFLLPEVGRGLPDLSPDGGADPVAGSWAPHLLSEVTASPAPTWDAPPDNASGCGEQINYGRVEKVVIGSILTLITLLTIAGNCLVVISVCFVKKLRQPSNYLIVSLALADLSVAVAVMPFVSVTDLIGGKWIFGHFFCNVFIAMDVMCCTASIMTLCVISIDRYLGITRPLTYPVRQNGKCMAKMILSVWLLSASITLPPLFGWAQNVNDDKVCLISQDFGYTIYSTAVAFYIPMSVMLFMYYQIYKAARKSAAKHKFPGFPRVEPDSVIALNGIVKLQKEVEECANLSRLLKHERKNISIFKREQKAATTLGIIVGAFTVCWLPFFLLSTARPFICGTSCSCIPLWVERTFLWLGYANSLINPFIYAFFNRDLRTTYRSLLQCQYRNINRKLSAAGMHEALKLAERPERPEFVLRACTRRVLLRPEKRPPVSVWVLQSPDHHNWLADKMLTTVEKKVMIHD
Protocol: as §1

A1 adenosine receptor [2] = target: T4, A1 adenosine receptor (Homo sapiens, UniProt P30542); experiment: Radioligand binding assay
T4 construct: purchased Eurofins
T4 sequence (P30542 whole entry): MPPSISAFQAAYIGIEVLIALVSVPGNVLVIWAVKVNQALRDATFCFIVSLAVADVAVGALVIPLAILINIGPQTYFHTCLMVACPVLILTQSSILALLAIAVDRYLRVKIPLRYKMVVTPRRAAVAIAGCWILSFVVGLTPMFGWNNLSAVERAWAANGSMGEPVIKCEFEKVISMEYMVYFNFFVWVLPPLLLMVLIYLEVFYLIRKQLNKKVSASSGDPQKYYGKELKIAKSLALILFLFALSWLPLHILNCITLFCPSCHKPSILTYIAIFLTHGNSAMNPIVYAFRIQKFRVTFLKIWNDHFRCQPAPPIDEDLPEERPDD
Protocol: as §1

A2A adenosine receptor [3] = target: T5, A2A adenosine receptor (Homo sapiens, UniProt P29274); experiment: Radioligand binding assay
T5 construct: Eurofins
T5 sequence (P29274 whole entry): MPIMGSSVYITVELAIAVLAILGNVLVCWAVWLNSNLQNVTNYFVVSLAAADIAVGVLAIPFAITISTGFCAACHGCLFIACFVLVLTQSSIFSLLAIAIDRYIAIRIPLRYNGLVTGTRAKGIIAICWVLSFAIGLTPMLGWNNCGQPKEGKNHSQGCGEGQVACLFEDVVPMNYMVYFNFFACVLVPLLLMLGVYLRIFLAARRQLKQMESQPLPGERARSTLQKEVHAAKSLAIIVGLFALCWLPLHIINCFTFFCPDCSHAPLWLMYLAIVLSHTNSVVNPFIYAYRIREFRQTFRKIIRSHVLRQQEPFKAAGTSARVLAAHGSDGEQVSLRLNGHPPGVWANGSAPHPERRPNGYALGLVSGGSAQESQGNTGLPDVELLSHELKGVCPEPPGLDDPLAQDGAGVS
Protocol: as §1

AT1 angiotensin receptor = target: T6, AT1 angiotensin receptor (Homo sapiens, UniProt P30556); experiment: Radioligand binding assay
T6 construct: Eurofins
Protocol: as §1

CB1 cannabinoid receptor [4] = target: T7, CB1 cannabinoid receptor (Homo sapiens, UniProt P21554); experiment: Radioligand binding assay
T7 construct: purchased Eurofins
T7 sequence (P21554 whole entry): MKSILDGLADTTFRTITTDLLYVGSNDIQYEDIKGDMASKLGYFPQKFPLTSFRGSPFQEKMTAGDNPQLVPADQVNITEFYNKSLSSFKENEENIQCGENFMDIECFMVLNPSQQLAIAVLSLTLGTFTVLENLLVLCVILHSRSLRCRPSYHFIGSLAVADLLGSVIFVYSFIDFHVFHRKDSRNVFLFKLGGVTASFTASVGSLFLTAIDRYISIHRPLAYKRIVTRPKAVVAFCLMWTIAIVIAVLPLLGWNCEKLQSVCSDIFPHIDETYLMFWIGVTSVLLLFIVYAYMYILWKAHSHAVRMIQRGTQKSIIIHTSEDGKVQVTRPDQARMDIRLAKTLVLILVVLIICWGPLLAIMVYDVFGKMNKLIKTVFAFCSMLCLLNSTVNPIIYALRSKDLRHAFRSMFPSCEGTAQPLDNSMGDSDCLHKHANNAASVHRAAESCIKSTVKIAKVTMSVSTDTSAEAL
Protocol: as §1

[5] = target: T8, CCK1 cholecystokinin receptor (Homo sapiens, UniProt P32238); experiment: Radioligand binding assay
T8 construct: Eurofins
T8 sequence (P32238 whole entry): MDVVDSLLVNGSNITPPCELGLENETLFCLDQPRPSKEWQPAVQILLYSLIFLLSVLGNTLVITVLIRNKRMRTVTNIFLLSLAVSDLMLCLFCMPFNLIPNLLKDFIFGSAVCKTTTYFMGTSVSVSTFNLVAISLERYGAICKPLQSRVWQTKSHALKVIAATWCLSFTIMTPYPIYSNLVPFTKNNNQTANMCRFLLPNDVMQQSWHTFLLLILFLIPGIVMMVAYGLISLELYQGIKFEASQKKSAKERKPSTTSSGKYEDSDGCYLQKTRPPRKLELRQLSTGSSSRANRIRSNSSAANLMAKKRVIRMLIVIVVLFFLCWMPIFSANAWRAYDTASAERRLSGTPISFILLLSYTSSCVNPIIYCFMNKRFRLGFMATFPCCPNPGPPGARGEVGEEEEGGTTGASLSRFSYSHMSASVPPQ
Protocol: as §1

D1 dopamine receptor = target: T9, D1 dopamine receptor (Homo sapiens, UniProt P21728); experiment: Radioligand binding assay
T9 construct: Eurofins
T9 sequence (P21728 whole entry): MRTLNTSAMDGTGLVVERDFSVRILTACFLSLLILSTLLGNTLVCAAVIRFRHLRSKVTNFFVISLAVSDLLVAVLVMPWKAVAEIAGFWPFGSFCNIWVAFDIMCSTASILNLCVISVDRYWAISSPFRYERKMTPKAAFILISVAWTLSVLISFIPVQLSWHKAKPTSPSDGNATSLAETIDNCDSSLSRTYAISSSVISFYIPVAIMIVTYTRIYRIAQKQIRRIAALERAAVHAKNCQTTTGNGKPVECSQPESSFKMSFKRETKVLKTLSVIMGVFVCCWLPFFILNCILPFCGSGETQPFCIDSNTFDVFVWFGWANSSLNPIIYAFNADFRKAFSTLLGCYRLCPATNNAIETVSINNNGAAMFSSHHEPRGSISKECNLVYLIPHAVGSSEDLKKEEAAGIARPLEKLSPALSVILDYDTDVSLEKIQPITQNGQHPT
Protocol: as §1

[6] = target: T10, Dopamine transporter (DAT) (Homo sapiens, UniProt Q01959); experiment: Radioligand binding assay
T10 construct: Eurofins
Protocol: as §1

[7] = target: T11, Glucocorticoid Receptor NR3C1 (Homo sapiens, UniProt P04150); experiment: Radioligand binding assay
T11 construct: Eurofins
T11 sequence (P04150 whole entry): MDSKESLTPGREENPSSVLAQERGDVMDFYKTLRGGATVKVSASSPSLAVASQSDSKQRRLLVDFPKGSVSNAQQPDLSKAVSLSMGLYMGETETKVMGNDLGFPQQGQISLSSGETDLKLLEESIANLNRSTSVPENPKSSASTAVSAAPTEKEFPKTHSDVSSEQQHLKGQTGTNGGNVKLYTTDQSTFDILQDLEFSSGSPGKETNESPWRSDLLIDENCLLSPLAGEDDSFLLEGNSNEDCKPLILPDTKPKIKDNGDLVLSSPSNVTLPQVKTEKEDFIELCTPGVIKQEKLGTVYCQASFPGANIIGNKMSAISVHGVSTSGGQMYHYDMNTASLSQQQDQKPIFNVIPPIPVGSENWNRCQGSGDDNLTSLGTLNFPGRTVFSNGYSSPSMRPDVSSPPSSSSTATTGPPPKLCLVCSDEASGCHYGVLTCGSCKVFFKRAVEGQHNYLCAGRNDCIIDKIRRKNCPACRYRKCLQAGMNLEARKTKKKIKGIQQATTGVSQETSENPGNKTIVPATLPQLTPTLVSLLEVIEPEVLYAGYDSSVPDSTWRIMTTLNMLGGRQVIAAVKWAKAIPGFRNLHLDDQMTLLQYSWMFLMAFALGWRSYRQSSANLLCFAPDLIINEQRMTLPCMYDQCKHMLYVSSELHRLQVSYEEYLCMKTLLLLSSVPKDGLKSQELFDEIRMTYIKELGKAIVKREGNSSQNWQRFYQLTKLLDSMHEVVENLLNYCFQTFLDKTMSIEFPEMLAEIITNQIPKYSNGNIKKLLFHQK
Protocol: as §1

M1 muscarinic receptor = target: T12, M1 muscarinic receptor (Homo sapiens, UniProt P11229); experiment: Radioligand binding assay
T12 construct: Eurofins
Protocol: as §1

M2 muscarinic receptor [8] = target: T13, M2 muscarinic receptor (Homo sapiens, UniProt P08172); experiment: Radioligand binding assay
T13 construct: Eurofins
T13 sequence (P08172 1-466): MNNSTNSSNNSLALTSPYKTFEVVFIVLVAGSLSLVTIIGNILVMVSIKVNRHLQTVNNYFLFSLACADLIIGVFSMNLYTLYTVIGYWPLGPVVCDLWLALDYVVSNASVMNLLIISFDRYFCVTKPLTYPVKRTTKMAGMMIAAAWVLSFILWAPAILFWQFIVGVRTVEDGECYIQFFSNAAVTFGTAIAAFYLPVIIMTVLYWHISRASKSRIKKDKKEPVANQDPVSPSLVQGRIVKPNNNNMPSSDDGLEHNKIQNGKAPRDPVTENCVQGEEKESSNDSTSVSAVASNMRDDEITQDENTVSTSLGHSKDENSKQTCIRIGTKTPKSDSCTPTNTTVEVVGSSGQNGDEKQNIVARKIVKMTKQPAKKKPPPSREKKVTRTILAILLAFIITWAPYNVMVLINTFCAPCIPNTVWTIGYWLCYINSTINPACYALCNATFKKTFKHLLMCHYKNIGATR
Protocol: as §1

NK1 neurokinin receptor = target: T14, NK1 neurokinin receptor (Homo sapiens, UniProt P25103); experiment: Radioligand binding assay
T14 construct: Eurofins
T14 sequence (P25103 whole entry): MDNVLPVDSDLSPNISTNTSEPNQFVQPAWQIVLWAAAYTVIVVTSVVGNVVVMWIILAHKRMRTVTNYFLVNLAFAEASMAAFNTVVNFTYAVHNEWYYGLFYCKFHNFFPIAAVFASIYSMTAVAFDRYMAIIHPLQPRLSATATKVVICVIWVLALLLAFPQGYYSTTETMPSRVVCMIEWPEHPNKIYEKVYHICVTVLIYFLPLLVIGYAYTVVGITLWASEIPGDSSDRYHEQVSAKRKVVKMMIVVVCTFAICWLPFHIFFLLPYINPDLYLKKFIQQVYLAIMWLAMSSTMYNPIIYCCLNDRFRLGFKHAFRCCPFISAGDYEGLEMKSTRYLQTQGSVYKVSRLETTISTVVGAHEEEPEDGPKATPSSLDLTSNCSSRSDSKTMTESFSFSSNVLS
Protocol: as §1

[9] = target: T15, Noradrenaline Transporter (NET) (Homo sapiens, UniProt P23975); experiment: Radioligand binding assay
T15 construct: Eurofins
Protocol: as §1

[10] = target: T16, Peroxisome proliferator-activated receptor-γ (Homo sapiens, UniProt P37231); experiment: Radioligand binding assay
T16 construct: Eurofins
Protocol: as §1

[11] = target: T17, SST4 somatostatin receptor (Homo sapiens, UniProt P31391); experiment: Radioligand binding assay
T17 construct: Eurofins
Protocol: as §1

α1A adrenoceptor = target: T18, α1A adrenoceptor (Homo sapiens, UniProt P35348); experiment: Radioligand binding assay
T18 construct: Eurofins
T18 sequence (P35348 whole entry): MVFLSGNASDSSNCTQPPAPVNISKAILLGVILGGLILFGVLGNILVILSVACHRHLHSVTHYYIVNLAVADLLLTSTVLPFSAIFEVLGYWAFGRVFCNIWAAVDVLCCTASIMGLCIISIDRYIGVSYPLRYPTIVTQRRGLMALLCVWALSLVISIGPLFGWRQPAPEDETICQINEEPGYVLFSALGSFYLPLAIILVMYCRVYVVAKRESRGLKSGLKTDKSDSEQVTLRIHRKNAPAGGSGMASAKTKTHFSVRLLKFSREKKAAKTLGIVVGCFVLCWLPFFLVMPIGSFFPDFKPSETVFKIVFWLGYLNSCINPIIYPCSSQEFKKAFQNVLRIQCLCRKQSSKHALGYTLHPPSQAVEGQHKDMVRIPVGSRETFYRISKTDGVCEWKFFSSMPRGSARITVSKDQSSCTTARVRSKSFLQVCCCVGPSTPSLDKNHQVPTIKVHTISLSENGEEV
Protocol: as §1

α1B adrenoceptor [12] = target: T19, α1B adrenoceptor (Homo sapiens, UniProt P35368); experiment: Radioligand binding assay
T19 construct: Eurofins
T19 sequence (P35368 1-520): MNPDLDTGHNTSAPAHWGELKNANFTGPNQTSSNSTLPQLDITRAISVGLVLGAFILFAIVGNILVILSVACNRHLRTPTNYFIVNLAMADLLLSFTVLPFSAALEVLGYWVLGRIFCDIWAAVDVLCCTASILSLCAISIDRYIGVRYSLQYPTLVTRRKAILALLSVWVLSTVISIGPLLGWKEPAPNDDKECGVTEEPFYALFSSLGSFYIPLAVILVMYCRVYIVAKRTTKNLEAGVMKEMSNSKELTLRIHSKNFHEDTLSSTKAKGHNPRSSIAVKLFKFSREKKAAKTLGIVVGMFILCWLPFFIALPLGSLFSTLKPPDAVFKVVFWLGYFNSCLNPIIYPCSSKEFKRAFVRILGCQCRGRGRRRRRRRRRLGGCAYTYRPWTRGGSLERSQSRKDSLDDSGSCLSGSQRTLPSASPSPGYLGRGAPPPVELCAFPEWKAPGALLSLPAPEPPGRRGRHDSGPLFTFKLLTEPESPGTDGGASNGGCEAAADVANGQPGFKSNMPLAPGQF
Protocol: as §1

δ opioid Receptor = target: T20, δ opioid Receptor (Homo sapiens, UniProt P41143); experiment: Radioligand binding assay
T20 construct: Eurofins
T20 sequence (P41143 whole entry): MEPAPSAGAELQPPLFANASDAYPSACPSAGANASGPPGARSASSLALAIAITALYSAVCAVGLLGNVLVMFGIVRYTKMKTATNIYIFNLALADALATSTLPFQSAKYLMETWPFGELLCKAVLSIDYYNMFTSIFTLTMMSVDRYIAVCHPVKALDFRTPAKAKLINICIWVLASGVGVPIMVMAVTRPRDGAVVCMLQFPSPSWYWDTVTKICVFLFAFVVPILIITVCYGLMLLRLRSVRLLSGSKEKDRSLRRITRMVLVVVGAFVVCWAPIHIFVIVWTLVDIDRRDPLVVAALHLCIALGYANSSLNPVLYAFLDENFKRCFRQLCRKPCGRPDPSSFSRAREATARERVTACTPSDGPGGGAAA
Protocol: as §1

κ opioid receptor = target: T21, κ opioid receptor (Homo sapiens, UniProt P41145); experiment: Radioligand binding assay
T21 construct: Eurofins
Protocol: as §1

5-HT7 receptor [13] = target: T3, 5-HT7 receptor; experiment: Cell based functional assay
Protocol: as §1

A1 adenosine receptor [14] = target: T4, A1 adenosine receptor; experiment: Cell based functional assay; details: mode of action ND
Protocol: as §1

A2A adenosine receptor [15] = target: T5, A2A adenosine receptor; experiment: Cell based functional assay; details: mode of action ND
Protocol: as §1

CB1 cannabinoid receptor [16] = target: T7, CB1 cannabinoid receptor; experiment: Cell based functional assay; details: mode of action ND
Protocol: as §1

M2 muscarinic receptor [17] = target: T13, M2 muscarinic receptor; experiment: Cell based functional assay
Protocol: as §1

α1B adrenoceptor [18] = target: T19, α1B adrenoceptor; experiment: Cell based functional assay
Protocol: as §1

[19] = Antagonist, read-out: Functional IC50 or EC50

Question: Which results are given for `Cn1cc2cc(-c3cc4[nH]nc(C5CC5)c4n(-c4ccc(OC(F)F)cc4)c3=O)ccc2n1` [AZ’9567]?
Answer: Ki (5-HT2B receptor): 32.4 µM; Ki (5-HT4 receptor): 10.3 µM; Ki (5-HT7 receptor [1]): 2.9 µM; Ki (A1 adenosine receptor [2]): 2.6 µM; Ki (A2A adenosine receptor [3]): 2.2 µM; Ki (AT1 angiotensin receptor): 12.7 µM; Ki (CB1 cannabinoid receptor [4]): 30.3 µM; Ki [5]: 25.3 µM; Ki (D1 dopamine receptor): 35 µM; Ki [6]: 22.6 µM; Ki [7]: 24.8 µM; Ki (M1 muscarinic receptor): 69.7 µM; Ki (M2 muscarinic receptor [8]): 1.8 µM; Ki (NK1 neurokinin receptor): 10.2 µM; Ki [9]: 33.3 µM; Ki [10]: 33.3 µM; Ki [11]: 50.6 µM; Ki (α1A adrenoceptor): 12.7 µM; Ki (α1B adrenoceptor [12]): 28.9 µM; Ki (δ opioid Receptor): 12.8 µM; Ki (κ opioid receptor): 6 µM; Pharmacological mode of action (5-HT7 receptor [13]): Antagonist; IC50 (5-HT7 receptor [13]; [19]): 2.9 µM; Functional IC50 or EC50 (A1 adenosine receptor [14]): >30.1 µM; Functional IC50 or EC50 (A2A adenosine receptor [15]): >100 µM; Functional IC50 or EC50 (CB1 cannabinoid receptor [16]): >100 µM; Pharmacological mode of action (M2 muscarinic receptor [17]): Antagonist; IC50 (M2 muscarinic receptor [17]; [19]): 17.1 µM; Pharmacological mode of action (α1B adrenoceptor [18]): Antagonist; IC50 (α1B adrenoceptor [18]; [19]): 28.9 µM

Source: publication PMC11272821, “Mechanistic safety assessment via multi-omic characterisation of systemic pathway perturbations following in vivo MAT2A inhibition” (Archives of Toxicology, 2024)
